Columns and labels:
[1] = target: T1, adenosine A2A receptor (A2AR) (Homo sapiens, UniProt P29274); experiment: A2AR/TREx CHO cAMP functional assay (antagonist mode, NECA EC80); format: cell-based
T1 construct: expressed in transfected cells
Method: Functional assays may also be employed to assess the compounds of the present invention. The cAMP assay described in detail below was used to evaluate certain compounds described herein.
Measurement of the Adenosine Receptor Activity of Compound I Using a A2AR/TREx CHO cAMP Functional Assay
Dose response of NECA (5-N-ethylcarboxamidoadenosine), a non-selective adenosine receptor agonist, was performed daily to determine the EC80 of NECA used in the cAMP functional assay. 1000-2500 cells/well of stably expressed A2AR TRex CHO cells were seeded to the 384-well Opti plate (Perkin Elmer) followed by incubating NECA at varies concentrations (ranging from 10 μM to 0 μM) at 37° C. for 30 min. […] FRET signal was detected with Envision multilabel plate reader (Perkin Elmer) when Eu-cAMP tracer excitation at 615 nm and emission at 665 nm. […]
The cAMP antagonist functional assay (Perkin Elmer) was performed on A2AR TRex CHO stable cell lines. […] FRET signal was detected when Eu-cAMP tracer excitation at 615 nm and emission at 665 nm. […]
Particular compounds were evaluated for adenosine A2A receptor activity as described for the cAMP assay above. […]

[2] = target: T2, A2BR (Homo sapiens, UniProt P29275); experiment: Potency on A2BR (no method described); conditions: summary statement
T2 sequence (P29275 1-332): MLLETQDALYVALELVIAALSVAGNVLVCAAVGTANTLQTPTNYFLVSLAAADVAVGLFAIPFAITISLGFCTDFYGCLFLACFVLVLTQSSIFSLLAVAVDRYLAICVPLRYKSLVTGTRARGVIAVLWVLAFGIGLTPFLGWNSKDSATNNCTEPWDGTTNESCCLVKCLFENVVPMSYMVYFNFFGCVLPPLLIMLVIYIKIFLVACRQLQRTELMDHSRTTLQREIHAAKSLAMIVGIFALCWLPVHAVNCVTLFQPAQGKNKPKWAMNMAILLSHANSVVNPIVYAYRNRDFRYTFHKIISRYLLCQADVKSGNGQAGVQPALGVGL

T1 sequence (P29274 whole entry): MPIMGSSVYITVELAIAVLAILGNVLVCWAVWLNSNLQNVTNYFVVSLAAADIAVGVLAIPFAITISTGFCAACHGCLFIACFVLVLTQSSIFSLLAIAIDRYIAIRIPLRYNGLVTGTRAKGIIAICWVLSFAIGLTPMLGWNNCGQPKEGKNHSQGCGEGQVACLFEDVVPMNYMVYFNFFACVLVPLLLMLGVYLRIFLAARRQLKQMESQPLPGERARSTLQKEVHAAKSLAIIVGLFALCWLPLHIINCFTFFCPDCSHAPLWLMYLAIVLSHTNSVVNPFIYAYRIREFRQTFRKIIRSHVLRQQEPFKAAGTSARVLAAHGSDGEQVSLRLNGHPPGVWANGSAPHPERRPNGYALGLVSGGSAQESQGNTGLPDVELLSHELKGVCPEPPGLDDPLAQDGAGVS

Kb [1]: < 10 nM
potency on A2AR (antagonist) ([1]; summary statement): less than 10 nM
potency on A2BR (antagonist) [2]: less than 10 nM
SMILES: Cc1c(C#N)cccc1-c1cc(-c2cn(Cc3cccc(C(C)(C)O)n3)nn2)nc(N)n1 [Compound I, 3-[2-amino-6-(1-{[6-(2-hydroxypropan-2-yl)pyridin-2-yl]methyl}-1H-1,2,3-triazol-4-yl)pyrimidin-4-yl]-2-methylbenzonitrile]

— patent publication US12195447B2, “Azolopyrimidine for the treatment of cancer-related disorders” (ARCUS BIOSCIENCES, INC., priority 2017, dated 2025)
